In publication PMC7796460, “Relation of Metal-Binding Property and Selective Toxicity of 8-Hydroxyquinoline Derived Mannich Bases Targeting Multidrug Resistant Cancer Cells” (Cancers, 2021):
Like-named read-outs stand apart in the source and are kept apart here. Marks after values point to notes of the source that are not given here.

Experiments:
[1] = test system: MES-SA/Dx5 cells; assay: MTT viability assay, MES-SA/Dx5; assay type: cell-based, human; details: for IC50: Homo sapiens, MES-SA/Dx5, Table S1, calculated as ligand equivalents, read-out: IC50 Dx5; for IC50 / SR: absence of TQ; for Effect of co-administration of CuCl2 on toxicity: MDR MES-SA/Dx5, increasing concentrations of CuCl2, MTT 72 h (Figure 2I-L); for Effect of co-incubation with iron(III) on cytotoxicity: MES-SA/Dx5, increasing concentrations of FeCl3, MTT 72 h (Figure 2A-D); for SR: Table S1, IC50 Pgp negative divided by Pgp positive cells; for SR_TQ: Table S1, presence of 1 µM TQ
How it was run: (§1)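 Cells seeded at 5000/well, attached overnight, then exposed to test compounds for 72 h. MTT (0.083 mg/mL) added for 1 h at 37 °C, formazan dissolved in DMSO and read at 540 nm; background-corrected, normalized to untreated cells, sigmoidal dose-response fit.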

[2] = set-up: method as in PMID 21275772; details: T = 25 °C, I = 0.2 M (KCl), cited from earlier work
[3] = test system: MES-SA cells; assay: MTT viability assay, MES-SA; assay type: cell-based, human; details: for IC50: Homo sapiens, MES-SA; for Effect of co-administration of CuCl2 on toxicity: parental MES-SA, increasing concentrations of CuCl2, MTT 72 h (Figure 2I-L)
How it was run: as §1

[4] = test system: MDCK cells; assay: MTT viability assay, MDCK; assay type: cell-based, canine; details: Canis lupus familiaris, 72 h, MTT 72 h
From the text: (§2) MDCK II canine kidney cells, A431 epidermoid carcinoma cells, the human uterine sarcoma cell lines MES-SA and the doxorubicin selected MES-SA-Dx5 were obtained from ATCC (MDCK II: No. CRL-2936™, A431: No. CRL-1555™, MES-SA: No. CRL-1976™, MES-SA/Dx5: No. CRL-1977™). ABCB1 was expressed in A431 and MES-SA cells using lentiviral transduction. The human cervix carcinoma cell line KB-3-1 and the vinblastine selected KB-v1were kind gifts from Dr. Michael M. Gottesman, National Institutes of Health. The phenotype of the resistant cells was verified using cytotoxicity assays. MDCK-B1 and MDCK-MM were established by the Sleeping Beauty transposon-based gene delivery system. OVCAR-8 and NCI-ADRres cells (obtained from the Division of Cancer Treatment and Diagnosis (DCTD) Tumor Repository (National Cancer Institute, Frederick, MD, USA)) were cultivated in RPMI-1640 (Sigma Aldrich, Budapest, Hungary), and other cell lines were cultivated in Dulbecco’s Modified Eagle Medium (DMEM, Sigma Aldrich, Budapest, Hungary), supplemented with 10% fetal bovine serum, 5 mM glutamine, and 50 unit/mL penicillin and streptomycin (Life Technologies, Carlsbad, CA, USA). All cell lines were cultivated at 37 °C, 5% CO2.
(§3) MTT viability assays were performed as described earlier with minor modifications. Briefly, cells were seeded into 96-well tissue culture plates (Sarstedt, Newton, NC, USA/Orange, Braine-l’Alleud, Belgium) at a density of 5000 cells/well and allowed to attach overnight. Test compounds were added to achieve the required final concentration in a final volume of 100 µL per well. After an incubation period of 72 h, the supernatant was removed and fresh medium containing the MTT reagent (0.083 mg/mL) was added. Incubation with MTT at 37 °C was terminated after 1 h by removing the supernatant and lysing the cells with 100 µL DMSO per well. Viability of the cells was measured spectrophotometrically based on the absorbance values at 540 nm using either a Perkin Elmer Victor X3 or an EnSpire microplate reader. Data were background corrected by subtraction of the signal obtained from unstained cell lysates and normalized to untreated cells. Curves were fitted by Prism software (GraphPad Software Inc., San Diego, CA, USA) using the sigmoidal dose-response model (comparing variable and fixed slopes). […] Significance was calculated using unpaired t-tests; results are given as *: p ≤ 0.05, **: p ≤ 0.01, ***: p ≤ 0.001, ****: p ≤ 0.0001.

[5] = test system: MDCK-MM cells; assay: MTT viability assay, MDCK-MM (non-functional Pgp); assay type: cell-based, canine; details: for IC50: Canis lupus familiaris, 72 h, MTT 72 h; for SR MDCK-MM: IC50 MDCK vs. MDCK-MM
From the text: as §2, §3

[6] = test system: MES-SA, MES-SA/Dx5 and MES-SA/B1 cells; assay: TXRF intracellular copper levels; assay type: cell-based, human; details: 1 µM ligand with 5 µM CuCl2, 4 h (Figure 4B)
Procedure: Cells were seeded to 6-well plates in a density of 1.5 Mio cells/well and allowed to attach overnight. Following a washing step with phosphate buffered saline (PBS), cells were incubated in serum free DMEM. For the iron-level measurements, cells were preloaded with 25 µM holo-transferrin for 4 h and, after a washing step with serum free DMEM, cells were incubated with 5 µM of each ligand for 8 h. For the detection of copper levels, cells were treated with 1 µM of the ligands in the presence of 5 µM CuCl2 for 4 h. Following incubation, cells were harvested upon trypsination, washed twice with PBS, counted and the resulting pellets were digested in 20 μL of 30% H2O2, 80 μL of 65% HNO3. 10 μL of 15 µg/mL Ga(NO3)3 (in nitric acid) was added as an internal standard upon digestion for 24 h at room temperature. From the resulting solutions, 2 μL were pipetted on the quartz reflectors used for total-reflection X-ray fluorescence (TXRF) analysis. For the determination of the intracellular Cu content, the TXRF method was used as previously reported. Briefly, all determinations were performed on an Atomika 8030C TXRF spectrometer (Atomika Instruments GmbH, Oberschleissheim, Germany). The stock solution of 1000 mg/L Ga was purchased from Merck (Darmstadt, Germany). The Kα line used for determination of Fe and Cu were at 6.403 and 8.047 keV. […] Significance was calculated using unpaired t-tests; results are given as *: p ≤ 0.05, **: p ≤ 0.01, ***: p ≤ 0.001, ****: p ≤ 0.0001.
Figure 4 Effect of the compounds on intracellular metal levels. (A) Iron levels of MES-SA (open columns) and MES-SA/B1 cells in absence (dark red squared columns) and presence of Pgp inhibitor Tariquidar (bright red squared columns). Cells were loaded with 25 µM holo-transferrin (4 h), followed by an incubation (8 h) without (ctr) or with 5 µM of ligands Q-1, Q-2, Q-3, and Q-4. […] (B) Cellular copper levels measured following a 4 h co-administration of compounds Q-1, Q-2, Q-3, and Q-4 (1 µM) and CuCl2 (5 µM) in MES-SA (open columns), MES-SA/Dx5 (filled columns) and MES-SA-B1 (squared columns) cells. Significance is given as *: p ≤ 0.05, **: p ≤ 0.01, ***: p ≤ 0.001.

[7] = test system: MES-SA/B1 cells; assay: MTT viability assay, MES-SA/B1; assay type: cell-based, human; details: for IC50: Homo sapiens, MES-SA, 72 h, MTT 72 h
From the text: as §2, §3

[8] = IC50 MES-SA vs. MES-SA/Dx5, absence of Tariquidar
[9] = IC50 MES-SA vs. MES-SA/Dx5, presence of 1 µM Tariquidar (brackets)
[10] = Table 2, value in brackets (Tariquidar as in Table 1)
[11] = Table 2, value outside brackets
[12] = MTT 72 h, absence of Tariquidar, read-out: IC50 MES-SA
[13] = Table 2, value outside brackets, read-out: MES-SA (toxicity, Table 2)
[14] = presence of 1 µM Tariquidar (values in brackets)
[15] = presence of 1 µM Tariquidar (brackets)
[16] = IC50 MES-SA vs. MES-SA/B1, absence of Tariquidar
[17] = IC50 MES-SA vs. MES-SA/B1, presence of 1 µM Tariquidar (brackets)

| SMILES | IC50 [1] [µM] | SR MES-SA/Dx5 [1, 8] | SR MES-SA/Dx5 [1, 9] | Effect of co-administration of CuCl2 on toxicity [1] | Effect of co-incubation with iron(III) on cytotoxicity [1] | SR MES-SA/Dx5 (Table 2) [1, 10] | SR MES-SA/Dx5 (Table 2) [1, 11] | SR [1] | SR_TQ [1] | pKa (NquinoliniumH+) [2] | pKa (OH) [2] | IC50 [3, 12] [µM] | IC50 [3, 13] [µM] | Effect of co-administration of CuCl2 on toxicity [3] | IC50 ([4]; absence of Tariquidar) [µM] | IC50 [4, 14] [µM] | IC50 ([5]; absence of Tariquidar) [µM] | IC50 [5, 14] [µM] | SR MDCK-MM ([5]; absence of Tariquidar) | SR MDCK-MM [5, 15] | further results |
| --- | --- | --- | --- | --- | --- | --- | --- | --- | --- | --- | --- | --- | --- | --- | --- | --- | --- | --- | --- | --- | --- |
| Oc1cccc2cccnc12 [Compound Q-1, 8-Hydroxyquinoline] | 2.46 ± 0.69 | 1.70 | 1.73 | increased the toxicity | did not influence the cytotoxicity | 1.73 | 1.70 | 1.70 | 1.73 | 4.99 ^a | 9.51 ^a | 4.19 ± 0.74 | 4.19 ± 0.74 | increased the toxicity | 3.27 ± 1.24 | 3.08 | 3.34 ± 0.6 | 3.59 | 0.97 | 0.86 | Intracellular copper levels [6]: significantly increased copper levels; IC50 ([7]; absence of Tariquidar): 3.68 ± 0.95 µM; IC50 [7, 14]: 4.92 µM; SR MES-SA/B1 [7, 16]: 1.14; SR MES-SA/B1 [7, 17]: 1.03 |
| Oc1c(CNCc2ccccc2F)cc(Cl)c2cccnc12 [Compound Q-4, 5-chloro-7-((2-fluorobenzylamino)methyl)quinolin-8-ol] | 0.2 ± 0.06 | 13.68 | 0.68 | not further sensitized | selectively protected MES-SA/Dx5 cells | 0.68 | 13.68 | 13.68 | 0.68 | < 2 ^a | 5.16 ^a | 2.75 ± 0.46 | 2.75 ± 0.46 | selective increase in sensitivity | 4.55 ± 1.53 | 5.92 | 5.23 ± 2.11 | 6.27 | 0.87 | 0.94 | Selective toxicity in the presence of 50 µM copper(II) ([1]; MES-SA vs. MES-SA/Dx5, 50 µM copper(II)): completely abrogated; MDR-selective toxicity with excess iron ions ([1]; MES-SA vs. MES-SA/Dx5, co-administered FeCl3): significantly reduced; pKa (additional) ([2]; group named in the cell): 8.54 ^a (NbenzylamineH2^+); Intracellular copper levels [6]: significantly increased copper levels; IC50 ([7]; absence of Tariquidar): 0.3 ± 0.06 µM; IC50 [7, 14]: 1.03 µM; SR MES-SA/B1 [7, 16]: 9.24; SR MES-SA/B1 [7, 17]: 2.16 |
